Test results published in patent US9265253B2, “Use of macrocyclic picolinamides as fungicides” (DOW AGROSCIENCES LLC, priority 2013, dated 2016).

These molecules were tested on Puccinia triticina; Synonym: Puccinia recondite f. Sp. Tritici (assay: Wheat Brown Rust (PUCCRT) disease control). Settings: Puccinia triticina, topical, 24 h, 1 Day Protectant, rate 100 ppm; read-out: PUCCRT 1 DP disease control.
Type: in vivo
Protocol: (§1) Technical grades of materials were dissolved in acetone, which were then mixed with nine volumes of water containing 110 ppm Triton X-100. The fungicide solutions were applied onto wheat seedlings using an automated booth sprayer to run-off. All sprayed plants were allowed to air dry prior to further handling. All fungicides were evaluated using the aforementioned method for their activity vs. all target diseases. Wheat leaf blotch and brown rust activity were also evaluated using track spray applications, in which case the fungicides were formulated as EC formulations, containing 0.1% Trycol 5941 in the spray solutions. Wheat plants (variety Yuma) were grown from seed in a greenhouse in 50% mineral soil/50% soil-less Metro mix until the first leaf was fully emerged, with 7-10 seedlings per pot. These plants were inoculated with an aqueous spore suspension of Septoria tritici either prior to or after fungicide treatments. After inoculation the plants were kept in 100% relative humidity (one day in a dark dew chamber followed by two to three days in a lighted dew chamber at 20° C.) to permit spores to germinate and infect the leaf. The plants were then transferred to a greenhouse set at 20° C. for disease to develop. When disease symptoms were fully expressed on the 1st leaves of untreated plants, infection levels were assessed on a scale of 0 to 100 percent disease severity. Percent disease control was calculated using the ratio of disease severity on treated plants relative to untreated plants. Wheat plants (variety Yuma) were grown from seed in a greenhouse in 50% mineral soil/50% soil-less Metro mix until the first leaf was fully emerged, with 7-10 seedlings per pot. These plants were inoculated with an aqueous spore suspension of Puccinia triticina either prior to or after fungicide treatments. After inoculation the plants were kept in a dark dew room at 22° C. with 100% relative humidity overnight to permit spores to germinate and infect the leaf. The plants were then transferred to a greenhouse set at 24° C. for disease to develop. Fungicide formulation, application and disease assessment followed the procedures as described in the Example A.

Row | SMILES | pest or weed control at 100 ppm [%]
1 | CCOCC(=O)OCOc1c(OC)ccnc1C(=O)N[C@H]1CCC[C@H](Cc2ccc(F)cc2)[C@@H](Oc2ccccc2)[C@H](C)OC1=O [Compound F165] | 80 to 100
2 | COc1ccnc(C(=O)N[C@H]2CCC[C@H](CCOc3ccccc3)[C@@H](OCC3CC3)[C@H](C)OC2=O)c1OC(C)=O [Compound F84] | 80 to 100
3 | COc1ccnc(C(=O)N[C@H]2CCC[C@H](CCBr)[C@@H](Oc3ccccc3)[C@H](C)OC2=O)c1O [Compound F50] | 80 to 100
4 | COc1ccnc(C(=O)N[C@H]2CCC[C@H](CCOCC3CC3)[C@@H](OCC3CC3)[C@H](C)OC2=O)c1O [Compound F54] | 80 to 100
5 | CC[C@H]1CCC[C@H](NC(=O)c2nccc(OC)c2OCOC(C)=O)C(=O)O[C@@H](C)[C@@H]1OCC(C)C [Compound F133] | 80 to 100

Same assay, conditions: Puccinia triticina, topical, 24 h, 1 Day Protectant, rate 121.5 g/H; read-out: PUCCRT 1 DP disease control

Row | SMILES | pest or weed control at 121.5 g/ha [%]
6 | CCOCC(=O)OCOc1c(OC)ccnc1C(=O)N[C@H]1CCC[C@H](Cc2ccc(F)cc2)[C@@H](Oc2ccccc2)[C@H](C)OC1=O [Compound F165] | 80 to 100
7 | COc1ccnc(C(=O)N[C@H]2CCC[C@H](CCOc3ccccc3)[C@@H](OCC3CC3)[C@H](C)OC2=O)c1OC(C)=O [Compound F84] | 80 to 100
8 | CC[C@H]1CCC[C@H](NC(=O)c2nccc(OC)c2OCOC(C)=O)C(=O)O[C@@H](C)[C@@H]1OCC(C)C [Compound F133] | 80 to 100

Same assay, conditions: Puccinia triticina, topical, 72 h, 3 Day Curative, rate 100 ppm; read-out: PUCCRT 3 DC disease control

Row | SMILES | pest or weed control at 100 ppm [%]
9 | CCOCC(=O)OCOc1c(OC)ccnc1C(=O)N[C@H]1CCC[C@H](Cc2ccc(F)cc2)[C@@H](Oc2ccccc2)[C@H](C)OC1=O [Compound F165] | 80 to 100
10 | COc1ccnc(C(=O)N[C@H]2CCC[C@H](CCOc3ccccc3)[C@@H](OCC3CC3)[C@H](C)OC2=O)c1OC(C)=O [Compound F84] | 80 to 100
11 | COc1ccnc(C(=O)N[C@H]2CCC[C@H](CCBr)[C@@H](Oc3ccccc3)[C@H](C)OC2=O)c1O [Compound F50] | 80 to 100
12 | COc1ccnc(C(=O)N[C@H]2CCC[C@H](CCOCC3CC3)[C@@H](OCC3CC3)[C@H](C)OC2=O)c1O [Compound F54] | 80 to 100
13 | CC[C@H]1CCC[C@H](NC(=O)c2nccc(OC)c2OCOC(C)=O)C(=O)O[C@@H](C)[C@@H]1OCC(C)C [Compound F133] | 80 to 100

Same assay, conditions: Puccinia triticina, topical, 72 h, 3 Day Curative, rate 121.5 g/H; read-out: PUCCRT 3 DC disease control

Row | SMILES | pest or weed control at 121.5 g/ha [%]
14 | CCOCC(=O)OCOc1c(OC)ccnc1C(=O)N[C@H]1CCC[C@H](Cc2ccc(F)cc2)[C@@H](Oc2ccccc2)[C@H](C)OC1=O [Compound F165] | 0 to 80
15 | COc1ccnc(C(=O)N[C@H]2CCC[C@H](CCOc3ccccc3)[C@@H](OCC3CC3)[C@H](C)OC2=O)c1OC(C)=O [Compound F84] | 80 to 100
16 | CC[C@H]1CCC[C@H](NC(=O)c2nccc(OC)c2OCOC(C)=O)C(=O)O[C@@H](C)[C@@H]1OCC(C)C [Compound F133] | 80 to 100

Each molecule was assayed on Mycosphaerella graminicola; Anamorph: Septoria tritici (assay: Leaf Blotch of Wheat (SEPTTR) disease control). Settings: Zymoseptoria tritici, 24 h, 1 Day Protectant, rate 100 ppm; read-out: SEPTTR 1 DP disease control.
Type: in vivo
Protocol: as §1, with “plants.” for “plants. Wheat plants (variety Yuma) were grown from seed in a greenhouse in 50% mineral soil/50% soil-less Metro mix until the first leaf was fully emerged, with 7-10 seedlings per pot. These plants were inoculated with an aqueous spore suspension of Puccinia triticina either prior to or after fungicide treatments. After inoculation the plants were kept in a dark dew room at 22° C. with 100% relative humidity overnight to permit spores to germinate and infect the leaf. The plants were then transferred to a greenhouse set at 24° C. for disease to develop. Fungicide formulation, application and disease assessment followed the procedures as described in the Example A.”

Row | SMILES | pest or weed control at 100 ppm [%]
17 | CCOCC(=O)OCOc1c(OC)ccnc1C(=O)N[C@H]1CCC[C@H](Cc2ccc(F)cc2)[C@@H](Oc2ccccc2)[C@H](C)OC1=O [Compound F165] | 80 to 100
18 | COc1ccnc(C(=O)N[C@H]2CCC[C@H](CCOc3ccccc3)[C@@H](OCC3CC3)[C@H](C)OC2=O)c1OC(C)=O [Compound F84] | 80 to 100
19 | COc1ccnc(C(=O)N[C@H]2CCC[C@H](CCBr)[C@@H](Oc3ccccc3)[C@H](C)OC2=O)c1O [Compound F50] | 80 to 100
20 | COc1ccnc(C(=O)N[C@H]2CCC[C@H](CCOCC3CC3)[C@@H](OCC3CC3)[C@H](C)OC2=O)c1O [Compound F54] | 0 to 80
21 | CC[C@H]1CCC[C@H](NC(=O)c2nccc(OC)c2OCOC(C)=O)C(=O)O[C@@H](C)[C@@H]1OCC(C)C [Compound F133] | 80 to 100

Same assay, conditions: Zymoseptoria tritici, 24 h, 1 Day Protectant, rate 121.5 g/H; read-out: SEPTTR 1 DP disease control

Row | SMILES | pest or weed control at 121.5 g/ha [%]
22 | CCOCC(=O)OCOc1c(OC)ccnc1C(=O)N[C@H]1CCC[C@H](Cc2ccc(F)cc2)[C@@H](Oc2ccccc2)[C@H](C)OC1=O [Compound F165] | 80 to 100
23 | COc1ccnc(C(=O)N[C@H]2CCC[C@H](CCOc3ccccc3)[C@@H](OCC3CC3)[C@H](C)OC2=O)c1OC(C)=O [Compound F84] | 0 to 80
24 | CC[C@H]1CCC[C@H](NC(=O)c2nccc(OC)c2OCOC(C)=O)C(=O)O[C@@H](C)[C@@H]1OCC(C)C [Compound F133] | 80 to 100

Same assay, conditions: Zymoseptoria tritici, 72 h, 3 Day Curative, rate 100 ppm; read-out: SEPTTR 3 DC disease control

Row | SMILES | pest or weed control at 100 ppm [%]
25 | CCOCC(=O)OCOc1c(OC)ccnc1C(=O)N[C@H]1CCC[C@H](Cc2ccc(F)cc2)[C@@H](Oc2ccccc2)[C@H](C)OC1=O [Compound F165] | 80 to 100
26 | COc1ccnc(C(=O)N[C@H]2CCC[C@H](CCOc3ccccc3)[C@@H](OCC3CC3)[C@H](C)OC2=O)c1OC(C)=O [Compound F84] | 80 to 100
27 | COc1ccnc(C(=O)N[C@H]2CCC[C@H](CCBr)[C@@H](Oc3ccccc3)[C@H](C)OC2=O)c1O [Compound F50] | 80 to 100
28 | COc1ccnc(C(=O)N[C@H]2CCC[C@H](CCOCC3CC3)[C@@H](OCC3CC3)[C@H](C)OC2=O)c1O [Compound F54] | 80 to 100
29 | CC[C@H]1CCC[C@H](NC(=O)c2nccc(OC)c2OCOC(C)=O)C(=O)O[C@@H](C)[C@@H]1OCC(C)C [Compound F133] | 80 to 100

Same assay, conditions: Zymoseptoria tritici, 72 h, 3 Day Curative, rate 121.5 g/H; read-out: SEPTTR 3 DC disease control

Row | SMILES | pest or weed control at 121.5 g/ha [%]
30 | CCOCC(=O)OCOc1c(OC)ccnc1C(=O)N[C@H]1CCC[C@H](Cc2ccc(F)cc2)[C@@H](Oc2ccccc2)[C@H](C)OC1=O [Compound F165] | 80 to 100
31 | CC[C@H]1CCC[C@H](NC(=O)c2nccc(OC)c2OCOC(C)=O)C(=O)O[C@@H](C)[C@@H]1OCC(C)C [Compound F133] | 80 to 100
